Results: US20080235824A1, “Use of Esterase Genes as Selectable Markers for Transforming Plant Cells” (priority 2006, published 2008)

How the values were obtained:
[1] = tested on: geranium petiole explants; test: Survival of geranium petiole explants on regeneration medium with detergents; type: cell-based, Pelargonium X hortorum; details: for Survival of geranium petiole explants on regeneration medium: surviving/total explants
Protocol: Tween 20, a nonionic, fatty acid ester detergent, was evaluated as a potential selective agent for use in geranium (Pelargonium X hortorum) transformation experiments by placing geranium petiole explants into tissue culture with the addition to Tween 20 to the regeneration (shooting) medium normally used in geranium transformations (Robichon et al., 1995). Tween 20 was added at three concentrations: 1%, 0.1% and 0.01%. Each treatment consisted of 40 sterilized petiole explants placed in four tissue culture plates carrying 10 explants each. Survival of the explants was assayed weekly over four weeks on these media. Potential selective agent Span 20, also a nonionic, fatty acid ester detergent, was similarly evaluated, except that concentrations of 1%, 0.5% and 0.25% were evaluated over a twelve week period of time. The nonionic detergent Triton X-100, which is not a fatty acid ester detergent, was included for comparative purposes.

[2] = tested on: tomato leaf explants; test: Survival of tomato leaf explants on regeneration medium with detergents; type: cell-based, Lycoperisicon esculentum; details: 1% detergent; for Survival of tomato leaf explants on regeneration medium: surviving/total explants
Protocol: Tween 20 was similarly evaluated as a potential selective agent for use in tomato (Lycoperisicon esculentum) transformations by placing tomato leaf explants placed into tissue culture; Tween 20 was added to tomato regeneration (shooting) medium normally used in tomato transformations (Riggs et al., 2001) at a 1% concentration. Each treatment consisted of 40 sterilized leaf explants placed in four tissue culture plates carrying 10 explants each. Survival of the explants was assayed weekly over four weeks on these media.

[3] = tested on: tomato cultivar Micro-Tom leaf explants; test: Agrobacterium transformation of tomato with selection on detergent or kanamycin; type: cell-based, Lycopersicon esculentum; details: tomato Micro-Tom, pIPG768 nptII, 100 micrograms/ml kanamycin, Exp. 1, 98 explants; for Transformation frequency (%): confirmed by PCR
Text: Transgenic tomato (Lycopersicon esculentum) cultivar “Micro-Tom” plants were created using the Agrobacterium tumefaciens DNA delivery method [Riggs et al., 2001; Sun et al., 2006] using pIPG768. Selection was either on 1% Tween 20 added to both shoot and root regeneration media. As controls for comparative purposes, 100 micrograms/ml kanamycin was used.

[4] = tested on: tobacco cultivar Xanthi leaf explants; test: Agrobacterium transformation of tobacco with selection on detergent or kanamycin; type: cell-based, Nicotiana tabacum; details: tobacco Xanthi, pIPG786 nptII, 100 micrograms/ml kanamycin, 235 explants
Text: Transgenic tobacco (Nicotiana tabacum) cultivar “Xanthi” plants were created using the Agrobacterium tumefaciens DNA delivery method [Horsch et al., 1985] using pIPG833. Selection was on 1% or on 0.05% Tween 20 added to both shoot and root regeneration media. As a control for comparative purposes, pIPG786 was used (carrying the nptII gene for kanamycin resistance) for transformation and 100 micrograms/ml kanamycin was used for selection.
Transgenic tobacco (Nicotiana tabacum) cultivar “Xanthi” plants were created using the Agrobacterium tumefaciens DNA delivery method [Horsch et al., 1985] using pIPG833. Selection was on 1% or on 0.05% Span 20 added to both shoot and root regeneration media.
Transgenic tobacco (Nicotiana tabacum) cultivar “Xanthi” plants were created using the Agrobacterium tumefaciens DNA delivery method [Horsch et al., 1985] using pIPG875. Selection was on 1% Span 20 added to the shoot regeneration medium and 0.05% Span 20 added to the root regeneration medium.

[5] = Phenol red lipase/esterase assay with crude plant leaf extracts; type: biochemical; details: transiently plant-expressed enzyme or positive control
Text: In this Figure, the first tube on the left (labeled “Buffer”) contains phenol red buffer and Tween 20 (the dark red color appears dark in this black and white figure); the second tube to the right (“SL”) has 4 Units of Sigma porcine pancreatic lipase added (the bright yellow color appears light); the third tube to the right (labeled “731”) has a twenty microliter droplet of a crude tomato plant leaf extract from leaves inoculated 4 days earlier with GV2260 carrying “empty” (ie., no lipase gene) expression vector pIPG731 (the dark red color appears dark), and the fourth tube to the right (“768 WI”) has a twenty microliter droplet of crude tomato plant leaf extract from leaves inoculated four days earlier with GV2260 carrying cloned bovine pregastric esterase expressed in pIPG768 (the bright yellow color appears light). Tomato leaf tissue particles may be seen floating in the third and fourth tubes to the right. […] The photo was taken 16 hrs. after start of the assay.
For transient expression assays of bovine PGE, the plant transformation and expression vectors constructed in Example 12 were moved into A. tumefaciens strain GV2260 by either electroporation or bacterial conjugation as described (Kapila et al., 1997). GV2260 carrying pIPG745 or pIPG746 was used for transient expression in tobacco, pepper, tomato, citrus, geranium, and rice plants as described (Kapila et al. 1997; Duan et al., 1999; Wroblewski et al. 2005). Cultures of Agrobacterium harboring the constructs of interest were grown in minimal medium in the presence of acetosyringone to induce the Agrobacterium vir genes. The optical density of the cultures was maintained at 0.008 for pepper and tomato and at 0.25 for citrus, geranium and rice. Strain GV2260 was flooded into healthy, young, fully expanded leaves of vigorous plants into the apoplastic space through open stomata by injection using a tuberculin syringe without a needle, flooding entire leaves. After 3-4 days, two grams of leaf tissue (fresh weight), was ground in liquid nitrogen to a fine powder, and 0.5 ml of ice cold phosphate buffered saline (PBS; 137 mM NaCl, 2.7 mM KCl, 10 mM potassium phosphate, pH 7.4) was added and mixed thoroughly at 4 C. The mixture was mixed on an orbital shaker at 4 C for 30 minutes, and plant debris was pelleted at 10,000×g for 15 minutes and discarded. The supernatants from these crude plant leaf extracts were directly used in lipase/esterase assays.
The second activity assay was a phenol red lipase/esterase assay using tributyrin, olive oil or Tween 20 as substrates as described by Singh et al. (2006), except that liquid medium, rather than solidified agar medium, was used. Twenty microliter droplets of crude plant leaf extracts and the positive control were placed in the tributyrin/phenol red medium containing tributyrin, olive oil or Tween 20 and incubated at 30 C overnight. […] Transient expression of bovine PGE was confirmed in tobacco, pepper, tomato, citrus, geranium, and rice plants.
For transient expression assays, the plant transformation and expression vectors constructed in Example 15 were moved into A. tumefaciens strain GV2260 by electroporation. GV2260 carrying pIPG823 was used for transient expression in tobacco and geranium plants exactly as described in Example 20. The supernatants from crude plant leaf extracts were directly used in phenol red lipase/esterase assays using tributyrin and olive oil as substrates exactly as described in Example 20.

With Triton X-100 the “Survival of geranium petiole explants on regeneration medium” value (shortened to “Survival of geranium petiole explants”) ([1]; 0.01% detergent, Week 1) was 39/40, the “Survival of geranium petiole explants” value ([1]; 0.01% detergent, Week 2) was 39/40 and the “Survival of geranium petiole explants” value ([1]; 0.01% detergent, Week 3) was 39/40. The “Survival of geranium petiole explants” value ([1]; 0.01% detergent, Week 4) was 14/40, the “Survival of geranium petiole explants” value ([1]; 0.1% detergent, Week 1) was 40/40 and the “Survival of geranium petiole explants” value ([1]; 0.1% detergent, Week 2) was 40/40. The “Survival of geranium petiole explants” value ([1]; 0.1% detergent, Week 3) was 40/40, the “Survival of geranium petiole explants” value ([1]; 0.1% detergent, Week 4) was 9/40 and the “Survival of geranium petiole explants” value ([1]; 1% detergent, Week 1) was 39/40. The “Survival of geranium petiole explants” value ([1]; 1% detergent, Week 2) was 39/40, the “Survival of geranium petiole explants” value ([1]; 1% detergent, Week 3) was 37/40 and the “Survival of geranium petiole explants” value ([1]; 1% detergent, Week 4) was 19/40. For the same molecule, the “Killing of geranium explants in tissue culture (in words)” value ([1]; summary of Table 1) was “much less efficient and much more variable in killing”, the “Survival of tomato leaf explants on regeneration medium” value (“Survival of tomato leaf explants” for short) ([2]; Week 1) was 40/40 and the “Survival of tomato leaf explants” value ([2]; Week 2) was 40/40. For the same molecule, the “Survival of tomato leaf explants” value ([2]; Week 3) was 10/40, the “Survival of tomato leaf explants” value ([2]; Week 4) was 7/40 and the “Killing of tomato explants in tissue culture (in words)” value ([2]; summary of Table 2) was “both less effective and unpredictable in killing”.

In the case of `NC[C@H]1O[C@H](O[C@H]2[C@H](O)[C@@H](O[C@H]3O[C@H](CO)[C@@H](O)[C@H](N)[C@H]3O)[C@H](N)C[C@@H]2N)[C@H](O)[C@@H](O)[C@@H]1O` [kanamycin, reference compound], the “No. of independent calli forming shoots” value [3] is reported as 40, the “No. of rooted shoots” value [3] is reported as 40 and the “Transformation frequency (%)” value [3] is reported as 1%. The “Transformation frequency (%)” value ([3]; listed as Kanamycin) was 1%, the “No. of independent calli forming shoots” value [4] was 55 and the “No. of rooted shoots” value [4] was 55. For the same molecule, the “Transformation frequency (%)” value ([4]; confirmed by PCR) was 19%.

B1: bovine PGE: bovine pregastric esterase, cloned from calf salivary glands and expressed in plants (protein)
chain: MWWLLVTVCFIHMSGNAFCFLGKIAKNPEASMNVSQMISYWGYPSEMHKVITADGYILQVYRIPHGKNNANHLGQRPVVFLQHGLLGSATNWISNLPKNSLGFLLADAGYDVWLGNSRGNTWAQEHLYYSPDSPEFWAFSFDEMAEYDLPSTIDFILRRTGQKKLHYVGHSQGTTIGFIAFSTNPTLAEKIKVFYALAPVATVKYTKSLFNKLALIPHFLFKIIFGDKMFYPHTFLEQFLGVEMCSRETLDVLCKNALFAITGVDNKNFNMSRLDVYIAHNPAGTSVQNTLHWRQAVKSGKFQAFDWGAPYQNLMHYHQPTPPIYNLTAMNVPIAVWSADNDLLADPQDVDLLLSKLSNLIYHKEIPNYNHLDFIWAMDAPQEVYNEIVSLMAEDKKEL
modifications: Bovine pregastric esterase cloned by IPG, translation product, with native leader and two amino acids added to form an ER retention signal sequence
notes: bovine pregastric esterase, cloned from calf salivary glands and expressed in plants
For B1, the “Substrates utilized in phenol red lipase/esterase assay” value [5] was “utilized all three substrates: tributyrin, olive oil and Tween 20”.

B2: nematode triglyceride lipase-cholesterol esterase: C. elegans triglyceride lipase-cholesterol esterase expressed in plants (protein)
chain: MKSLLLLFLLFLHTLCENVTTPNSEEDTDMTATPSTITPLLSTAQNPSLPKTSKLPLALKTPVPTFPFSSLATSDWLSSMPTIQTLLPPPLPLTTLEVPENENFGFTSLAPLWTLPTQPPAWSPMLDSPIKPIQNSMFPTFPTMPTLPTLPTLAPFTFPTLPPPTTMKPLNITIDPEALMDVPEIITHWGYPVETHKVVTVDGYILTLHRIPHSKNETSKSASKTPKPVVFLQHGLLCTSSIWLLNLPRQSAGYIFADQGYDVWLGNMRGNTYSKEHTRMTSADRRFWKFSWEEMARYDLPAMINYALKTTKRQNLYYVGHSQGALTMFAKMSEDPEMSKKIRKFFAMAPVARMSHVKGLFQNLGQIYEQYNLVYQVFGDGEFLTNNIFTKLLTDIFCDQAVNNPLCENFIFAVSGPNSNQFNNSRIGIYLAHNPAGTSSRNILHFAQMVKKKRMSRFDHGKDLNLKIYGAPSPPEYDIRKINSSIYLFYSDFDWLANPKDVEGFLIPMLPSKTLKKATKLRDFNHNDFLWGMRARKEIYDKIINTIKLDQRRVKLQNSMERFFERQSRNPTSGLDEETMMRLRNETMNLD
modifications: Caenorhabditis elegans
notes: C. elegans triglyceride lipase-cholesterol esterase expressed in plants
In the case of B2, the “Substrates utilized in phenol red lipase/esterase assay” value [5] is reported as “utilized tributyrin and olive oil”.
